# Test results as given in patent publication US20180292376A1, “DIFFUSION CELL TESTING METHODS CONTAINING BIPHASIC RECEPTOR FLUIDS” (BUFFERAD Illinois Inc. d/b/a Zyleris PharmaTech, Inc., priority 2017, published 2018).
# Where “and” joins values, the source holds several entries; their conditions need not be identical. Equal values may be shown once.
# Assay: In vitro release testing (IVRT), static vertical diffusion cell, synthetic membrane, UV-VIS analysis
# Assay type: physicochemical
# Conditions: for amount of xylene cyanol released into the water phase / release of Xylene Cyanol into the receptor fluid: ointment
# Description: In Vitro Release Testing Method.
# Release of pharmaceutically active compounds from semi-solid dosage forms was evaluated in an in vitro model of static vertical diffusion cell using a synthetic membrane model. […] The samples were analyzed using a UV-VIS spectrometer. […]
# Test time points: 0, 2, 4, 6, 8, and 10 hours. Each test was conducted in four replicates (N=4). Square root of test time points: 0, 1.41, 2.00, 2.45, 2.83, and 3.16.
# Membrane: Polypropylene (pore size: 0.45 micron).
# Static vertical diffusion cell parameters: Area of the membrane diffusion area: 0.95 square centimeters.
# Dosing level: infinite dose at about 3.0 milliliter of the semi-solid dosage form.
# Static vertical diffusion cell consists of a donor and receptor compartment separated by a synthetic membrane. The dosing compartment was for the dosed semi-solid dosage form. […] Before dosing, the diffusion cell was pre-incubated at 32° C. for about 20 to 45 minutes. The t=0 samples were taken after the incubation period prior to dosing.
# During the experiment, the receptor fluid was in intimate contact with the membrane through a mixing mechanism, such as, e.g., magnetic stirring bar, or orbit shaker, and maintained at 32° C. using a heating mechanism, such as, e.g., dry heat block, or circulating water bath. At each time point, entire content of the receptor fluid was collected and replaced with a fresh batch pre-incubated at 32° C.
# An ointment dosage form was prepared as an example of the semi-solid dosage form. Petrolatum was heated to about 50 to 70° C. while mixing. Xylene Cyanol was added to the heated petrolatum while heating and mixing. The mixture was mixed until uniform. Then, the mixture was slowly cooled to room temperature while mixing to yield the ointment formulation.
structure (smiles),measurement,setting,value
CCN=C1C=CC(=C(c2ccc(NCC)c(C)c2)c2ccc(S(=O)(=O)[O-])cc2S(=O)(=O)O)C=C1C.[Na+] [Xylene Cyanol],amount of xylene cyanol released,"0.5% Xylene Cyanol in Petrolatum, infinite dose, biphasic receptor fluid: 1-Octanol:H2O 1:1 v:v, square root of time (hr) 0.00 (0 h, prior to dosing)",0.0000 mcg/cm2
same,amount of xylene cyanol released,"0.5% Xylene Cyanol in Petrolatum, infinite dose, biphasic receptor fluid: 1-Octanol:H2O 1:1 v:v, square root of time (hr) 2.00 (4 h)",1.2143 mcg/cm2 and 1.9575 mcg/cm2 and 1.4206 mcg/cm2 and 1.4438 mcg/cm2
same,amount of xylene cyanol released,"0.5% Xylene Cyanol in Petrolatum, infinite dose, biphasic receptor fluid: 1-Octanol:H2O 1:1 v:v, square root of time (hr) 2.45 (6 h)",2.2025 mcg/cm2 and 3.0973 mcg/cm2 and 2.5204 mcg/cm2 and 2.5436 mcg/cm2
same,amount of xylene cyanol released,"0.5% Xylene Cyanol in Petrolatum, infinite dose, biphasic receptor fluid: 1-Octanol:H2O 1:1 v:v, square root of time (hr) 2.83 (8 h)",3.1044 mcg/cm2 and 4.1192 mcg/cm2 and 3.3865 mcg/cm2 and 3.7213 mcg/cm2
same,amount of xylene cyanol released,"0.5% Xylene Cyanol in Petrolatum, infinite dose, biphasic receptor fluid: 1-Octanol:H2O 1:1 v:v, square root of time (hr) 3.16 (10 h)",3.8674 mcg/cm2 and 4.8589 mcg/cm2 and 4.2884 mcg/cm2 and 4.5853 mcg/cm2
same,amount of xylene cyanol released,"0.5% Xylene Cyanol in Petrolatum, infinite dose, biphasic receptor fluid: 1-Octanol:PBS Buffer pH 7.4 1:1 v:v, square root of time 0.00 (0 h, prior to dosing)",0.0000 mcg/cm2
same,amount of xylene cyanol released,"0.5% Xylene Cyanol in Petrolatum, infinite dose, biphasic receptor fluid: 1-Octanol:PBS Buffer pH 7.4 1:1 v:v, square root of time 2.00 (4 h)",0.3389 mcg/cm2 and 0.4105 mcg/cm2 and 0.5179 mcg/cm2 and 0.4295 mcg/cm2
same,amount of xylene cyanol released,"0.5% Xylene Cyanol in Petrolatum, infinite dose, biphasic receptor fluid: 1-Octanol:PBS Buffer pH 7.4 1:1 v:v, square root of time 2.45 (6 h)",1.2295 mcg/cm2 and 1.3179 mcg/cm2 and 0.8863 mcg/cm2 and 0.9032 mcg/cm2
same,amount of xylene cyanol released,"0.5% Xylene Cyanol in Petrolatum, infinite dose, biphasic receptor fluid: 1-Octanol:PBS Buffer pH 7.4 1:1 v:v, square root of time 2.83 (8 h)",1.3579 mcg/cm2 and 1.8147 mcg/cm2 and 1.4400 mcg/cm2 and 1.5937 mcg/cm2
same,amount of xylene cyanol released,"0.5% Xylene Cyanol in Petrolatum, infinite dose, biphasic receptor fluid: 1-Octanol:PBS Buffer pH 7.4 1:1 v:v, square root of time 3.16 (10 h)",1.8884 mcg/cm2 and 2.4316 mcg/cm2 and 1.7305 mcg/cm2 and 1.9768 mcg/cm2
same,Slope - Average,"0.5% Xylene Cyanol in Petrolatum, infinite dose, receptor fluid: 1-Octanol:H2O 1:1 v:v, N=4 runs",2.2026 mcg/cm2/h^0.5
same,Slope - Average,"0.5% Xylene Cyanol in Petrolatum, infinite dose, receptor fluid: 1-Octanol:PBS Buffer pH 7.4 1:1 v:v",1.0412 mcg/cm2/h^0.5
same,amount of xylene cyanol released,"0.5% Xylene Cyanol in Petrolatum, infinite dose, receptor fluid: 1-Octanol, square root of time (hr) 0.00 (0 h, prior to dosing)",BDL
same,amount of xylene cyanol released,"0.5% Xylene Cyanol in Petrolatum, infinite dose, receptor fluid: 1-Octanol, square root of time (hr) 1.41 (2 h)",BDL
same,amount of xylene cyanol released,"0.5% Xylene Cyanol in Petrolatum, infinite dose, receptor fluid: 1-Octanol, square root of time (hr) 2.00 (4 h)",BDL
same,amount of xylene cyanol released,"0.5% Xylene Cyanol in Petrolatum, infinite dose, receptor fluid: 1-Octanol, square root of time (hr) 2.45 (6 h)",BDL
same,amount of xylene cyanol released,"0.5% Xylene Cyanol in Petrolatum, infinite dose, receptor fluid: 1-Octanol, square root of time (hr) 2.83 (8 h)",BDL
same,amount of xylene cyanol released,"0.5% Xylene Cyanol in Petrolatum, infinite dose, receptor fluid: 1-Octanol, square root of time (hr) 3.16 (10 h)",BDL
same,amount of xylene cyanol released,"0.5% Xylene Cyanol in Petrolatum, infinite dose, receptor fluid: 1-octanol:ethanol 50:50 v:v, square root of time (hr) 0.00 (0 h, prior to dosing)",BDL
same,amount of xylene cyanol released,"0.5% Xylene Cyanol in Petrolatum, infinite dose, receptor fluid: 1-octanol:ethanol 50:50 v:v, square root of time (hr) 1.41 (2 h)",BDL
same,amount of xylene cyanol released,"0.5% Xylene Cyanol in Petrolatum, infinite dose, receptor fluid: 1-octanol:ethanol 50:50 v:v, square root of time (hr) 2.00 (4 h)",BDL
same,amount of xylene cyanol released,"0.5% Xylene Cyanol in Petrolatum, infinite dose, receptor fluid: 1-octanol:ethanol 50:50 v:v, square root of time (hr) 2.45 (6 h)",BDL
same,amount of xylene cyanol released,"0.5% Xylene Cyanol in Petrolatum, infinite dose, receptor fluid: 1-octanol:ethanol 50:50 v:v, square root of time (hr) 2.83 (8 h)",BDL
same,amount of xylene cyanol released,"0.5% Xylene Cyanol in Petrolatum, infinite dose, receptor fluid: 1-octanol:ethanol 50:50 v:v, square root of time (hr) 3.16 (10 h)",BDL
same,amount of xylene cyanol released,"0.5% Xylene Cyanol in Petrolatum, infinite dose, receptor fluid: Isopropyl alcohol:water 50:50 v:v, square root of time (hr) 0.00 (0 h, prior to dosing)",BDL
same,amount of xylene cyanol released,"0.5% Xylene Cyanol in Petrolatum, infinite dose, receptor fluid: Isopropyl alcohol:water 50:50 v:v, square root of time (hr) 1.41 (2 h)",BDL
same,amount of xylene cyanol released,"0.5% Xylene Cyanol in Petrolatum, infinite dose, receptor fluid: Isopropyl alcohol:water 50:50 v:v, square root of time (hr) 2.00 (4 h)",BDL
same,amount of xylene cyanol released,"0.5% Xylene Cyanol in Petrolatum, infinite dose, receptor fluid: Isopropyl alcohol:water 50:50 v:v, square root of time (hr) 2.45 (6 h)",BDL
same,amount of xylene cyanol released,"0.5% Xylene Cyanol in Petrolatum, infinite dose, receptor fluid: Isopropyl alcohol:water 50:50 v:v, square root of time (hr) 2.83 (8 h)",BDL
same,amount of xylene cyanol released,"0.5% Xylene Cyanol in Petrolatum, infinite dose, receptor fluid: Isopropyl alcohol:water 50:50 v:v, square root of time (hr) 3.16 (10 h)",BDL
same,amount of xylene cyanol released,"0.5% Xylene Cyanol in Petrolatum, infinite dose, receptor fluid: dimethyl sulfoxide:ethanol 50:50 v:v, square root of time (hr) 0.00 (0 h, prior to dosing)",BDL
same,amount of xylene cyanol released,"0.5% Xylene Cyanol in Petrolatum, infinite dose, receptor fluid: dimethyl sulfoxide:ethanol 50:50 v:v, square root of time (hr) 1.41 (2 h)",BDL
same,amount of xylene cyanol released,"0.5% Xylene Cyanol in Petrolatum, infinite dose, receptor fluid: dimethyl sulfoxide:ethanol 50:50 v:v, square root of time (hr) 2.00 (4 h)",BDL
same,amount of xylene cyanol released,"0.5% Xylene Cyanol in Petrolatum, infinite dose, receptor fluid: dimethyl sulfoxide:ethanol 50:50 v:v, square root of time (hr) 2.45 (6 h)",BDL
same,amount of xylene cyanol released,"0.5% Xylene Cyanol in Petrolatum, infinite dose, receptor fluid: dimethyl sulfoxide:ethanol 50:50 v:v, square root of time (hr) 2.83 (8 h)",BDL
same,amount of xylene cyanol released,"0.5% Xylene Cyanol in Petrolatum, infinite dose, receptor fluid: dimethyl sulfoxide:ethanol 50:50 v:v, square root of time (hr) 3.16 (10 h)",BDL
same,amount of xylene cyanol released,"0.5% Xylene Cyanol in Petrolatum, infinite dose, receptor fluid: dimethyl sulfoxide:isopropyl alcohol:water 30:30:40 v:v:v, square root of time (hr) 0.00 (0 h, prior to dosing)",BDL
same,amount of xylene cyanol released,"0.5% Xylene Cyanol in Petrolatum, infinite dose, receptor fluid: dimethyl sulfoxide:isopropyl alcohol:water 30:30:40 v:v:v, square root of time (hr) 1.41 (2 h)",BDL
same,amount of xylene cyanol released,"0.5% Xylene Cyanol in Petrolatum, infinite dose, receptor fluid: dimethyl sulfoxide:isopropyl alcohol:water 30:30:40 v:v:v, square root of time (hr) 2.00 (4 h)",BDL
same,amount of xylene cyanol released,"0.5% Xylene Cyanol in Petrolatum, infinite dose, receptor fluid: dimethyl sulfoxide:isopropyl alcohol:water 30:30:40 v:v:v, square root of time (hr) 2.45 (6 h)",BDL
same,amount of xylene cyanol released,"0.5% Xylene Cyanol in Petrolatum, infinite dose, receptor fluid: dimethyl sulfoxide:isopropyl alcohol:water 30:30:40 v:v:v, square root of time (hr) 2.83 (8 h)",BDL
same,amount of xylene cyanol released,"0.5% Xylene Cyanol in Petrolatum, infinite dose, receptor fluid: dimethyl sulfoxide:isopropyl alcohol:water 30:30:40 v:v:v, square root of time (hr) 3.16 (10 h)",BDL
same,amount of xylene cyanol released,"0.5% Xylene Cyanol in Petrolatum, infinite dose, receptor fluid: isopropyl alcohol, square root of time (hr) 0.00 (0 h, prior to dosing)",BDL
same,amount of xylene cyanol released,"0.5% Xylene Cyanol in Petrolatum, infinite dose, receptor fluid: isopropyl alcohol, square root of time (hr) 1.41 (2 h)",BDL
same,amount of xylene cyanol released,"0.5% Xylene Cyanol in Petrolatum, infinite dose, receptor fluid: isopropyl alcohol, square root of time (hr) 2.00 (4 h)",BDL
same,amount of xylene cyanol released,"0.5% Xylene Cyanol in Petrolatum, infinite dose, receptor fluid: isopropyl alcohol, square root of time (hr) 2.45 (6 h)",BDL
same,amount of xylene cyanol released,"0.5% Xylene Cyanol in Petrolatum, infinite dose, receptor fluid: isopropyl alcohol, square root of time (hr) 2.83 (8 h)",BDL
same,amount of xylene cyanol released,"0.5% Xylene Cyanol in Petrolatum, infinite dose, receptor fluid: isopropyl alcohol, square root of time (hr) 3.16 (10 h)",BDL
same,Slope (release rate),"0.5% Xylene Cyanol in Petrolatum, infinite dose, receptor fluid: water, amount released vs square root of time",BDL
same,amount of xylene cyanol released,"0.5% Xylene Cyanol in Petrolatum, infinite dose, receptor fluid: water, square root of time (hr) 0.00 (0 h, prior to dosing)",BDL
same,amount of xylene cyanol released,"0.5% Xylene Cyanol in Petrolatum, infinite dose, receptor fluid: water, square root of time (hr) 1.41 (2 h)",BDL
same,amount of xylene cyanol released,"0.5% Xylene Cyanol in Petrolatum, infinite dose, receptor fluid: water, square root of time (hr) 2.00 (4 h)",BDL
same,amount of xylene cyanol released,"0.5% Xylene Cyanol in Petrolatum, infinite dose, receptor fluid: water, square root of time (hr) 2.45 (6 h)",BDL
same,amount of xylene cyanol released,"0.5% Xylene Cyanol in Petrolatum, infinite dose, receptor fluid: water, square root of time (hr) 2.83 (8 h)",BDL
same,amount of xylene cyanol released,"0.5% Xylene Cyanol in Petrolatum, infinite dose, receptor fluid: water, square root of time (hr) 3.16 (10 h)",BDL
same,amount of xylene cyanol released into the water phase,biphasic receptor fluid 1-butanol:1-octanol:water 20:30:50 v:v:v,high amount
same,amount of xylene cyanol released into the water phase,biphasic receptor fluid 1-hexanol:1-octanol:water 25:25:50 v:v:v,high amount
same,amount of xylene cyanol released into the water phase,biphasic receptor fluid 1-hexanol:water 50:50 v:v,high amount
same,amount of xylene cyanol released into the water phase,biphasic receptor fluid 1-octanol:PEG 400:water 40:20:40 v:v:v,higher amount
same,amount of xylene cyanol released into the water phase,biphasic receptor fluid 1-octanol:ethanol:water 40:20:40 v:v:v,higher amount
same,amount of xylene cyanol released into the water phase,biphasic receptor fluid 1-octanol:glycerin:water 40:20:40 v:v:v,higher amount
same,amount of xylene cyanol released into the water phase,biphasic receptor fluid 1-octanol:isopropanol:water 40:20:40 v:v:v,higher amount
same,amount of xylene cyanol released into the water phase,biphasic receptor fluid 1-octanol:propylene glycol:water 40:20:40 v:v:v,higher amount
same,release of Xylene Cyanol into the receptor fluid,one-phase receptor fluid: 1-octanol,no release
same,release of Xylene Cyanol into the receptor fluid,one-phase receptor fluid: 1-octanol:ethanol 50:50 v:v,no release
same,release of Xylene Cyanol into the receptor fluid,one-phase receptor fluid: dimethyl sulfoxide:ethanol 50:50 v:v,no release
same,release of Xylene Cyanol into the receptor fluid,one-phase receptor fluid: dimethyl sulfoxide:isopropyl alcohol:water 30:30:40 v:v:v,no release
same,release of Xylene Cyanol into the receptor fluid,one-phase receptor fluid: isopropyl alcohol,no release
same,release of Xylene Cyanol into the receptor fluid,one-phase receptor fluid: isopropyl alcohol:water 50 to 50 in volume,no release
same,release of Xylene Cyanol into the receptor fluid,one-phase receptor fluid: water,no release
